From patent US10710986B2, “PD-1/PD-L1 inhibitors” (Gilead Sciences, Inc., priority 2018, dated 2020) come the findings set out here.

The assay addresses PD-1/PD-L1 (Homo sapiens (Human), UniProt Q9NZQ7). The assay is described as follows: PD-1/PD-L1 biochemical protein-protein interaction assay (ALPHA). Conditions: 0.3 nM His tagged PD-L1, 2.5 nM biotinylated Fc-PD-1, 60 minutes at 25° C., read-out: IC50 PD-L1-PD1.

The structures appear in SMILES notation.

Chain of PD-1/PD-L1 (Q9NZQ7 19-238): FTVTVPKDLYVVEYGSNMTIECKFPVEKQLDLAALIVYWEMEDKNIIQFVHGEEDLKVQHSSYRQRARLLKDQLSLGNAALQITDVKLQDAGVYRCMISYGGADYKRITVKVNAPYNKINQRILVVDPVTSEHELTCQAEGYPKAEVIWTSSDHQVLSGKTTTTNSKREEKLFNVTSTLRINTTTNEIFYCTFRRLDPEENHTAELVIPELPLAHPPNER

For the compound `COc1nc(-c2cccc(-c3cccc(-c4cnc(CNC[C@@H]5CCC(=O)N5)c(OC)n4)c3Cl)c2Cl)ccc1CN1CC(CO)C1` [compound 157], the half-inhibitory concentration (IC50) came to 0.064 nM.

`COc1nc(-c2cccc(-c3cccc(-c4cnc(CNC[C@@H]5CCC(=O)N5)c(OC)n4)c3Cl)c2Cl)ccc1CN1CCC(C)(O)CC1` [compound 158]: the concentration for half-maximal inhibition (IC50) turned out to be 0.162 nM. With `COc1nc(-c2cccc(-c3cccc(-c4cnc(CNC[C@@H]5CCC(=O)N5)c(OC)n4)c3Cl)c2Cl)ccc1CN1CC[C@](C)(O)C1` [compound 159] the figure was 0.15 nM. With `COc1nc(-c2cccc(-c3cccc(-c4cnc(CNC[C@@H]5CCC(=O)N5)c(OC)n4)c3Cl)c2Cl)ccc1CN1CCC(CO)CC1` [compound 160] the figure was 0.128 nM.

For `COc1nc(-c2cccc(-c3cccc(-c4cnc(CNC[C@@H]5CCC(=O)N5)c(OC)n4)c3Cl)c2Cl)ccc1CNCc1nc(=O)o[nH]1` [compound 161], the IC50 came to 0.167 nM. Take `COc1nc(-c2cccc(-c3cccc(-c4cnc(CNC[C@@H]5CCC(=O)N5)c(OC)n4)c3Cl)c2Cl)ccc1CNC1CCOCC1` [compound 162]: the IC50 amounted to 0.116 nM. With `COc1nc(-c2cccc(-c3cccc(-c4cnc(CNC[C@@H]5CCC(=O)N5)c(OC)n4)c3Cl)c2Cl)ccc1CN1CCC(C(N)=O)CC1` [compound 163], the IC50 is 0.177 nM. The figure for `COc1nc(-c2cccc(-c3cccc(-c4cnc(CNC[C@@H]5CCC(=O)N5)c(OC)n4)c3Cl)c2Cl)ccc1CN1CC(O)C1` [compound 164] is 0.122 nM. With `COc1nc(-c2cccc(-c3cccc(-c4cnc(CNC[C@@H]5CCC(=O)N5)c(OC)n4)c3Cl)c2Cl)ccc1CN[C@@H]1COC[C@H]1O` [compound 165] the figure was 0.187 nM; with `COc1nc(-c2cccc(-c3cccc(-c4cnc(CNC[C@@H]5CCC(=O)N5)c(OC)n4)c3Cl)c2Cl)ccc1CN[C@H]1CNC(=O)C1` [compound 166], 0.233 nM. With `COc1nc(-c2cccc(-c3cccc(-c4cnc(CNC[C@@H]5CCC(=O)N5)c(OC)n4)c3Cl)c2Cl)ccc1CN[C@@H]1CNC(=O)C1` [compound 167] the figure was 0.262 nM; with `COc1nc(-c2cccc(-c3cccc(-c4cnc(CNC[C@@H]5CCC(=O)N5)c(OC)n4)c3Cl)c2Cl)ccc1CN1CC2(CNC(=O)N2)C1` [compound 168], 0.196 nM. Consider `COc1nc(-c2cccc(-c3cccc(-c4cnc(CNC[C@@H]5CCC(=O)N5)c(OC)n4)c3Cl)c2Cl)ccc1CN[C@H]1CCNC1=O` [compound 169], for which the IC50 amounted to 0.344 nM. On to `COc1nc(-c2cccc(-c3cccc(-c4cnc(CNC[C@@H]5CCC(=O)N5)c(OC)n4)c3Cl)c2Cl)ccc1CN[C@@H]1CCOC1` [compound 170], for which the IC50 was 0.227 nM.

Consider `COc1nc(-c2cccc(-c3cccc(-c4cnc(CNC[C@@H]5CCC(=O)N5)c(OC)n4)c3Cl)c2Cl)ccc1CN[C@H]1CCOC1` [compound 171], for which the half-inhibitory concentration (IC50) is 0.208 nM. As for `COc1nc(-c2cccc(-c3cccc(-c4cnc(CNC[C@H]5C[C@@H](O)C5)c(OC)n4)c3Cl)c2Cl)cnc1CNC[C@@H]1CCC(=O)N1` [compound 172], the 50% inhibitory concentration (IC50) stood at 0.222 nM. The figure for `COc1nc(-c2cccc(-c3cccc(-c4cnc(CN5CC(OC)C5)c(OC)n4)c3Cl)c2Cl)cnc1CNC[C@@H]1CCC(=O)N1` [compound 173] is 0.209 nM. With `COc1nc(-c2cccc(-c3cccc(-c4cnc(CN5CCC(C)(O)C5)c(OC)n4)c3Cl)c2Cl)cnc1CNC[C@@H]1CCC(=O)N1` (stereo partly drawn) [compound 174] the figure was 0.219 nM; with `COc1nc(-c2cccc(-c3cccc(-c4cnc(CN5CC(C)(CO)C5)c(OC)n4)c3Cl)c2Cl)cnc1CNC[C@@H]1CCC(=O)N1` [compound 175], 0.11 nM. The figure for `COc1nc(-c2cccc(-c3cccc(-c4cnc(CN5CC(CO)C5)c(OC)n4)c3Cl)c2Cl)cnc1CNC[C@@H]1CCC(=O)N1` [compound 176] is 0.111 nM; for `COc1nc(-c2cccc(-c3cccc(-c4cnc(CNC5CCC(F)C5)c(OC)n4)c3Cl)c2Cl)cnc1CNC[C@@H]1CCC(=O)N1` (stereo partly drawn) [compound 177] it is 0.33 nM.

One may read the IC50 as the point on the concentration scale where inhibition reaches its midpoint.
